Common to all, as to type: functional
Assay [1] deals with Pseudomonas aeruginosa. Description: Antibacterial activity against Pseudomonas aeruginosa assessed as inhibition zone at 50 ug/ml by diffusion method. Conditions: read-out: IZ.
Assay [2] concerns Pseudomonas aeruginosa. Kind of assay: Antibacterial activity against Pseudomonas aeruginosa assessed as inhibition zone at 75 ug/ml by diffusion method. Conditions: read-out: IZ.
Assay [3] deals with Mycobacterium tuberculosis. Description: Antimycobacterial activity against Mycobacterium tuberculosis H37Rv assessed as bacterial growth inhibition by microplate Alamar blue assay.
Assay [4] relates to Staphylococcus aureus. Kind of assay: Antibacterial activity against Staphylococcus aureus assessed as inhibition zone at 50 ug/ml by diffusion method. The following applies: read-out: IZ.
Assay [5] has as its system Escherichia coli. Kind of assay: Antibacterial activity against Escherichia coli assessed as inhibition zone at 50 ug/ml by diffusion method. Conditions: read-out: IZ.
Assay [6] concerns Escherichia coli. Kind of assay: Antibacterial activity against Escherichia coli assessed as inhibition zone at 75 ug/ml by diffusion method. The following applies: read-out: IZ.
Assay [7] relates to Staphylococcus aureus. Kind of assay: Antibacterial activity against Staphylococcus aureus assessed as inhibition zone at 75 ug/ml by diffusion method. Conditions: read-out: IZ.
The subject of assay [8] is Staphylococcus aureus. Kind of assay: Antibacterial activity against Staphylococcus aureus assessed as inhibition zone at 25 ug/ml by diffusion method. The following applies: read-out: IZ.

Molecules are shown by their SMILES. A value given as a limit tells only on which side of the number the result lay.

On to `O=C(Cc1cn(Cc2ccc(F)cc2)c2ccccc12)N1CCN(C(=O)c2ccccc2)CC1`, for which the figures for the zone of inhibition at 50 µg/mL in the assay on Pseudomonas aeruginosa [1], with Staphylococcus aureus [4] and in the assay with Escherichia coli [5] were 10 mm, 17 mm and 10 mm, respectively. Further, the zone of inhibition at 75 µg/mL with Pseudomonas aeruginosa [2] came out at 12 mm; in the assay with Escherichia coli [6], 12 mm; with Staphylococcus aureus [7], 23 mm. Also, the minimal inhibitory concentration (MIC) in assay [3] was above 120 µM. Besides, the zone of inhibition at 25 µg/mL with Staphylococcus aureus [8] is 13 mm.
With `O=C(Cc1c[nH]c2ccccc12)N1CCN(C(=O)c2ccc(F)cc2)CC1`, the zone of inhibition at 75 µg/mL with Pseudomonas aeruginosa [2] came out at 10 mm; in the assay on Escherichia coli [6] it was 18 mm; in the assay on Staphylococcus aureus [7] it was 20 mm. Besides, the minimal inhibitory concentration (MIC) in assay [3] was found to be 68.4 µM. In addition, the zone of inhibition at 50 µg/mL in the assay with Staphylococcus aureus [4] amounted to 13 mm; with Escherichia coli [5] it was 15 mm.
Regarding `O=C(Cc1cn(Cc2ccc(F)cc2)c2ccccc12)N1CCN(S(=O)(=O)c2ccc(Cl)cc2)CC1`, the results for the zone of inhibition at 75 µg/mL in the assay on Pseudomonas aeruginosa [2], with Escherichia coli [6] and with Staphylococcus aureus [7] were 13 mm, 18 mm and 22 mm, respectively. Besides, the minimum inhibitory concentration (MIC) in assay [3] was found to be 23.8 µM. The zone of inhibition at 50 µg/mL was determined as 18 mm in the assay with Staphylococcus aureus [4] and 15 mm in the assay with Escherichia coli [5]. The zone of inhibition at 25 µg/mL in the assay with Staphylococcus aureus [8] was 15 mm.
Regarding `Cc1ccc(S(=O)(=O)N2CCN(C(=O)CCc3cn(Cc4ccc(F)cc4)c4ccccc34)CC2)cc1`, the zone of inhibition at 75 µg/mL is 10 mm in the assay on Pseudomonas aeruginosa [2], 18 mm with Escherichia coli [6] and 23 mm in the assay on Staphylococcus aureus [7]. For the same compound, in assay [3], the minimum inhibitory concentration (MIC) turned out to be 48.1 µM. Also, the figures for the zone of inhibition at 50 µg/mL with Staphylococcus aureus [4] and in the assay on Escherichia coli [5] were 18 mm and 15 mm, respectively. Further, in the assay on Staphylococcus aureus [8], the zone of inhibition at 25 µg/mL is 15 mm.
`Cc1ccc(S(=O)(=O)N2CCN(C(=O)Cc3cn(Cc4ccc(F)cc4)c4ccccc34)CC2)cc1`: the zone of inhibition at 75 µg/mL in the assay on Pseudomonas aeruginosa [2] worked out at 13 mm; with Escherichia coli [6], 18 mm; in the assay on Staphylococcus aureus [7] it was 22 mm. In addition, in assay [3], the minimum inhibitory concentration (MIC) is 49.4 µM. Further, the zone of inhibition at 50 µg/mL was found to be 18 mm with Staphylococcus aureus [4] and 15 mm in the assay with Escherichia coli [5]. Besides, in the assay with Staphylococcus aureus [8], the zone of inhibition at 25 µg/mL is 13 mm.
As for `NC(=O)c1cnccn1` [PYRAZINAMIDE], the MIC in assay [3] was 25.3 µM.
Regarding `O=C(CCc1c[nH]c2ccccc12)N1CCN(S(=O)(=O)c2ccc(Cl)cc2)CC1`, the zone of inhibition at 75 µg/mL in the assay on Pseudomonas aeruginosa [2] is 10 mm; in the assay on Escherichia coli [6] it was 10 mm; with Staphylococcus aureus [7], 13 mm. Moreover, in assay [3], the MIC came to 57.8 µM. Further, the results for the zone of inhibition at 50 µg/mL in the assay on Staphylococcus aureus [4] and with Escherichia coli [5] were 10 mm and 8 mm, respectively.
With `O=C(Cc1cn(Cc2ccc(F)cc2)c2ccccc12)N1CCN(S(=O)(=O)c2ccc(F)cc2)CC1`, the zone of inhibition at 75 µg/mL was found to be 18 mm with Pseudomonas aeruginosa [2], 18 mm in the assay with Escherichia coli [6] and 20 mm in the assay on Staphylococcus aureus [7]. The MIC in assay [3] turned out to be 24.5 µM. The zone of inhibition at 50 µg/mL came out at 18 mm in the assay with Staphylococcus aureus [4] and 13 mm in the assay with Escherichia coli [5]. For the same compound, the zone of inhibition at 25 µg/mL in the assay on Staphylococcus aureus [8] was 15 mm.
In the case of `NNC(=O)c1ccncc1` [ISONIAZID], the MIC in assay [3] is 11.7 µM.
For the compound `Cc1ccc(C(=O)N2CCN(C(=O)Cc3c[nH]c4ccccc34)CC2)cc1`, the zone of inhibition at 75 µg/mL in the assay on Pseudomonas aeruginosa [2] amounted to 10 mm; with Escherichia coli [6] it was 18 mm; with Staphylococcus aureus [7] it was 15 mm. Also, the MIC in assay [3] was above 120 µM. Besides, the zone of inhibition at 50 µg/mL in the assay on Staphylococcus aureus [4] was 13 mm; in the assay on Escherichia coli [5] it was 12 mm. In the assay on Staphylococcus aureus [8], the zone of inhibition at 25 µg/mL was found to be 12 mm.
`O=C(CCc1c[nH]c2ccccc12)N1CCN(C(=O)c2ccccc2)CC1`: the zone of inhibition at 50 µg/mL with Pseudomonas aeruginosa [1] turned out to be 10 mm; in the assay with Staphylococcus aureus [4], 13 mm; with Escherichia coli [5] it was 13 mm. In addition, the zone of inhibition at 75 µg/mL in the assay with Pseudomonas aeruginosa [2] was determined as 12 mm; in the assay on Escherichia coli [6] it was 15 mm; in the assay on Staphylococcus aureus [7], 15 mm. In assay [3], the MIC is above 120 µM.

The term MIC denotes the lowest concentration that inhibits growth of the organism.

The values are drawn from ChEMBL document CHEMBL5523679, “Discovery of 1,2,3-triazole incorporated indole-piperazines as potent antitubercular agents: Design, synthesis, in vitro biological evaluation, molecular docking and ADME studies” (Bioorg Med Chem, 2024).
